Test results: PubChem BioAssay AID248 (DTP/NCI, 2004)
Values joined by “and” are separate entries in the source; they are usually repeats but may differ in a detail not shown here. Equal entries are not always repeated. Toxic doses and inconclusive results are not listed. Rule as the data show it: active = T/C of 150% or more; inactive = T/C below 125%.

System: L1210 leukemia ip in BDF1 mice, survival T/C
Assay: NCI In Vivo Anticancer Drug Screen. Data for tumor model L1210 Leukemia (intraperitoneal) in B6D2F1 (BDF1) mice
Details: endpoint: mean survival time, higher = longer survival
How it was run: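 Transplanted-tumor mice were given test agent; controls received vehicle only. Survival readings from the two groups were divided (treated over control).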

[1] = dose: 100.0 mg/kg/injection, schedule: Q01DX001 (ip), vehicle: saline
[2] = dose: 200.0 mg/kg/injection, schedule: Q01DX001 (ip), vehicle: saline
[3] = dose: 400.0 mg/kg/injection, schedule: Q01DX001 (ip), vehicle: saline
[4] = dose: 100.0 mg/kg/injection, schedule: Q01DX009 (ip), vehicle: Klucel (hydroxypropylcellulose) (HPC)
[5] = dose: 100.0 mg/kg/injection, schedule: Q04DX003 (ip), vehicle: Klucel (hydroxypropylcellulose) (HPC)
[6] = dose: 200.0 mg/kg/injection, schedule: Q01DX009 (ip), vehicle: Klucel (hydroxypropylcellulose) (HPC)
[7] = dose: 200.0 mg/kg/injection, schedule: Q04DX003 (ip), vehicle: Klucel (hydroxypropylcellulose) (HPC)
[8] = dose: 400.0 mg/kg/injection, schedule: Q01DX009 (ip), vehicle: Klucel (hydroxypropylcellulose) (HPC)
[9] = dose: 400.0 mg/kg/injection, schedule: Q04DX003 (ip), vehicle: Klucel (hydroxypropylcellulose) (HPC)
[10] = dose: 100.0 mg/kg/injection, schedule: Q04DX003 (ip), vehicle: saline
[11] = dose: 200.0 mg/kg/injection, schedule: Q04DX003 (ip), vehicle: saline
[12] = dose: 400.0 mg/kg/injection, schedule: Q04DX003 (ip), vehicle: saline
[13] = dose: 100.0 mg/kg/injection, schedule: Q01DX001 (ip), vehicle: carboxymethylcellulose (CMC)
[14] = dose: 200.0 mg/kg/injection, schedule: Q01DX001 (ip), vehicle: carboxymethylcellulose (CMC)
[15] = dose: 400.0 mg/kg/injection, schedule: Q01DX001 (ip), vehicle: carboxymethylcellulose (CMC)
[16] = dose: 100.0 mg/kg/injection, schedule: Q01DX009 (ip), vehicle: saline with Tween-80
[17] = dose: 200.0 mg/kg/injection, schedule: Q01DX009 (ip), vehicle: saline with Tween-80
[18] = dose: 400.0 mg/kg/injection, schedule: Q01DX009 (ip), vehicle: saline with Tween-80
[19] = dose: 100.0 mg/kg/injection, schedule: Q04DX003 (ip), vehicle: saline with Tween-80
[20] = dose: 200.0 mg/kg/injection, schedule: Q04DX003 (ip), vehicle: saline with Tween-80
[21] = dose: 400.0 mg/kg/injection, schedule: Q04DX003 (ip), vehicle: saline with Tween-80

Measured: T/C

COc1cc2c(c3c1c(=O)c1ccccc1n3C)C=CC(C)(C)O2
inactive: dose: 6.0 mg/kg/injection, schedule: Q01DX001 (ip), vehicle: acetone 101 % of control | dose: 7.5 mg/kg/injection, schedule: Q01DX Z (ip), vehicle: other 106 % of control | dose: 12.0 mg/kg/injection, schedule: Q01DX001 (ip), vehicle: acetone 97 % of control | dose: 15.0 mg/kg/injection, schedule: Q01DX001 (ip), vehicle: other 97 % of control | dose: 15.0 mg/kg/injection, schedule: Q01DX Z (ip), vehicle: other 114 % of control | dose: 25.0 mg/kg/injection, schedule: Q01DX001 (ip), vehicle: acetone 105 % of control | dose: 30.0 mg/kg/injection, schedule: Q01DX001 (ip), vehicle: other 94 % of control | dose: 30.0 mg/kg/injection, schedule: Q01DX Z (ip), vehicle: other 122 % of control | dose: 50.0 mg/kg/injection, schedule: Q01DX001 (ip), vehicle: acetone 118 % of control | dose: 50.0 mg/kg/injection, schedule: Q01DX009 (ip), vehicle: acetone 103 % of control | dose: 60.0 mg/kg/injection, schedule: Q01DX001 (ip), vehicle: other 105 % of control | dose: 60.0 mg/kg/injection, schedule: Q01DX Z (ip), vehicle: other 103 % of control | dose: 100.0 mg/kg/injection, schedule: Q01DX001 (ip), vehicle: acetone 114 % of control | dose: 100.0 mg/kg/injection, schedule: Q01DX009 (ip), vehicle: acetone 91 % of control | dose: 120.0 mg/kg/injection, schedule: Q01DX001 (ip), vehicle: other 105 % of control | dose: 400.0 mg/kg/injection, schedule: Q01DX001 (ip), vehicle: acetone 116 % of control

CC(C)(C)c1cc(O)c(C(C)(C)C)cc1O
inactive: dose: 50.0 mg/kg/injection, schedule: Q01DX001 (ip), vehicle: saline 90 % of control | [1] 96 % of control | dose: 100.0 mg/kg/injection, schedule: Q04DX002 (ip), vehicle: gum acacia 106 % of control | [2] 94 % of control | dose: 200.0 mg/kg/injection, schedule: Q04DX002 (ip), vehicle: gum acacia 106 % of control | [3] 98 % of control | dose: 400.0 mg/kg/injection, schedule: Q04DX002 (ip), vehicle: gum acacia 108 % of control

CN(C(=O)N(C)c1ccccc1)c1ccccc1
inactive: [4] 102 % of control | [5] 103 % of control | [6] 96 % of control | [7] 103 % of control | [8] 95 % of control | [9] 103 % of control

CC1=NNC(C)(C)C1
inactive: [10] 91 % of control | [11] 93 % of control | [12] 98 % of control

O=C(O)c1ccccc1C(NC(=O)N1C(=O)C=CC1=O)NC(=O)N1C(=O)C=CC1=O
inactive: [13] 97 % of control | [14] 97 % of control | [15] 106 % of control

Cc1ccc(NC(N)=O)cc1Cl
inactive: [4] 105 % of control | [6] 107 % of control | [8] 102 % of control

Nc1ccccc1SC1CC(=O)N(c2cccc(Cl)c2)C1=O (stereo not drawn)
inactive: [4] 91 % of control | [5] 94 % of control | [6] 92 % of control | [7] 95 % of control | [8] 91 % of control | [9] 94 % of control

CN(C)C=Nc1ccc(C(=O)OCCN(C)C)cc1
inactive: dose: 50.0 mg/kg/injection, schedule: Q01DX009 (ip), vehicle: saline with Tween-80 115 % of control | [16] 97 % of control | [17] 106 % of control

O=C(OCc1ccccc1)C1CCCN1Cc1ccc2c(c1)OCO2 (stereo not drawn)
inactive: [1] 93 % of control | [3] 96 % of control

O=c1cc(C23CC4CC(CC(C4)C2)C3)[nH]c(=S)[nH]1
inactive: dose: 100.0 mg/kg/injection, schedule: Q01DX001 (ip), vehicle: saline with Tween-80 92 % of control | dose: 200.0 mg/kg/injection, schedule: Q01DX001 (ip), vehicle: saline with Tween-80 108 % of control | dose: 400.0 mg/kg/injection, schedule: Q01DX001 (ip), vehicle: saline with Tween-80 94 % of control

C=CC1CN(CCc2cc3ccccc3[nH]2)CCC1CC(=O)OCC (stereo not drawn)
inactive: [16] 91 % of control | [17] 96 % of control | [18] 97 % of control

c1ccc(C2c3cccc4c3C3c5c2cccc5C(c2ccccc2)c2cccc(c23)C4c2ccccc2)cc1 (stereo not drawn)
inactive: [19] 108 % of control | [20] 95 % of control | [21] 100 % of control

O=C(CCC(=O)OCCBr)OCCBr
inactive: [5] 110 % of control | [7] 102 % of control

CCC[N+](=CC1CCCCC1)CCC
inactive: [10] 104 % of control | [11] 95 % of control | [12] 91 % of control

Cc1ccc(S(=O)(=O)NC(=O)NCCCOC(C)C)cc1
inactive: [19] 98 % of control | [20] 94 % of control | [21] 96 % of control

Nc1nc(N)c(N=Nc2ccc(S(=O)(=O)c3ccc(N=Nc4c(N)nc(N)[nH]c4=O)cc3)cc2)c(=O)[nH]1
inactive: [1] 91 % of control | [2] 96 % of control | [3] 91 % of control

Cn1cc([N+](=O)[O-])c(=O)n(C)c1=O
inactive: dose: 50.0 mg/kg/injection, schedule: Q01DX001 (ip), vehicle: carboxymethylcellulose (CMC) 93 % of control | [13] 98 % of control | [14] 102 % of control | [15] 104 % of control

NNc1ccc(C(=O)O)cc1
inactive: [4] 100 % of control | [16] 98 % of control and 101 % of control | [5] 102 % of control | [19] 100 % of control and 101 % of control | [6] 96 % of control | [17] 93 % of control and 95 % of control | [7] 91 % of control | [20] 96 % of control and 108 % of control | [8] 100 % of control | [18] 117 % of control and 91 % of control | [9] 96 % of control | [21] 94 % of control and 96 % of control

Cc1cc(NC(=O)Nc2ccc(F)cc2)no1
inactive: [13] 100 % of control | dose: 100.0 mg/kg/injection, schedule: Q01DX009 (ip), vehicle: carboxymethylcellulose (CMC) 97 % of control and 105 % of control | dose: 100.0 mg/kg/injection, schedule: Q04DX002 (ip), vehicle: carboxymethylcellulose (CMC) 104 % of control | [14] 97 % of control | dose: 200.0 mg/kg/injection, schedule: Q01DX009 (ip), vehicle: carboxymethylcellulose (CMC) 97 % of control | dose: 200.0 mg/kg/injection, schedule: Q04DX002 (ip), vehicle: carboxymethylcellulose (CMC) 92 % of control and 102 % of control | [15] 101 % of control | dose: 400.0 mg/kg/injection, schedule: Q01DX009 (ip), vehicle: carboxymethylcellulose (CMC) 94 % of control and 95 % of control | dose: 400.0 mg/kg/injection, schedule: Q04DX002 (ip), vehicle: carboxymethylcellulose (CMC) 92 % of control and 94 % of control

CN(C)CCCNc1c2ccc(Cl)cc2nc2ccc(O)cc12
inactive: dose: 12.5 mg/kg/injection, schedule: Q04DX002 (ip), vehicle: saline 107 % of control | dose: 25.0 mg/kg/injection, schedule: Q04DX002 (ip), vehicle: saline 115 % of control

CCCCCC(CC)C(CC)CO (stereo not drawn)
inactive: dose: 15.0 mg/kg/injection, schedule: Q01DX001 (ip), vehicle: carboxymethylcellulose (CMC) 95 % of control | dose: 30.0 mg/kg/injection, schedule: Q01DX001 (ip), vehicle: carboxymethylcellulose (CMC) 96 % of control | dose: 60.0 mg/kg/injection, schedule: Q01DX001 (ip), vehicle: carboxymethylcellulose (CMC) 96 % of control

O=C(c1ccccc1)C(Br)c1ccc([N+](=O)[O-])cc1 (stereo not drawn)
inactive: [4] 99 % of control | [5] 105 % of control | [6] 105 % of control | [7] 108 % of control | [8] 95 % of control | [9] 103 % of control

C(#Cc1ccccc1)COCC1CO1 (stereo not drawn)
inactive: dose: 50.0 mg/kg/injection, schedule: Q04DX003 (ip), vehicle: saline with Tween-80 95 % of control | [19] 98 % of control | [20] 91 % of control
